Paper PMC9234671, “Molecular determinants of αVβ5 localization in flat clathrin lattices – role of αVβ5 in cell adhesion and proliferation” (Journal of Cell Science, 2022)

Columns and labels:
[1] = tested on: integrin β5 localization in PA-JEB/β4 keratinocytes; test: Immunofluorescence: integrin β5 clustering in FAs/FCLs, PA-JEB/β4; type: cell-based, human
Text: Fig. 3. Serine 759 and 762 are involved in regulating the localization of integrin β5. (A–C) Integrin β5 containing S759/762E or S759/762A mutations (A) were expressed in β5-deficient PA-JEB/β4 keratinocytes and the subcellular distribution of β5 was compared to β5-deficient keratinocytes expressing wild-type (WT) β5. Merged images show integrin β5 (green), vinculin (B) or clathrin (C) (red), actin (blue) and the cell nuclei (cyan). (D,E) Analysis of wild-type versus mutant integrin β5 clustering in FAs or FCLs. (F–I) PA-JEB/β4 keratinocytes were grown in 10% FCS-supplemented DMEM culture medium overnight and then treated with 5 nM calyculin A (Cal.A) or DMSO (vehicle control) for 30 min prior to fixation. Merged images show integrin β5 (green), vinculin (F) or clathrin (H) (red), actin (blue) and the cell nuclei (cyan), quantifications of β5 clustering in FAs or FCLs are shown in G,I. (J,K) Analysis of integrin β5 clustering in FAs or FCLs in PA-JEB keratinocytes after treatment with Cal.A. Representative confocal microscopy images are shown in Fig. S3. Scale bars: 20 μm. Data were obtained from three independent experiments. Total cells analyzed per condition: 109 (WT), 116 (S>E), 103 (S>A) (D), 81 (WT), 77 (S>E), 101 (S>A) (E), 126 and 123 (G), 111 and 101 (I), 106 and 102 (J), 115 and 109 (K). ****P<0.0001 (Mann–Whitney U-test). Box plots range from the 25th to 75th percentile; central line indicates the median; whiskers show smallest to largest value.
PA-JEB/β4 keratinocytes were seeded on glass coverslips and cultured in complete KGM medium for 24 h, and then treated with DMEM plus 10% FCS for 24 h. Other cell lines were seeded on glass coverslips and cultured in DMEM plus 10% FCS. Cells were fixed with 2% paraformaldehyde (PFA) for 10 min, permeabilized with 0.2% Triton X-100 for 5 min, and blocked with PBS containing 2% bovine serum albumin (BSA; Sigma) for at least 30 min. Next, cells were incubated with the primary antibodies for 1 h at room temperature. Cells were washed three times before incubation with the secondary antibodies for 1 h. Additionally, nuclei were stained with DAPI, and filamentous actin was visualized using Alexa Fluor 488 or 647-conjugated phalloidin (Invitrogen). After three washing steps with PBS, the coverslips were mounted onto glass slides in Mowiol. Images were obtained using a Leica TCS SP5 confocal microscope with a 63× (NA 1.4) oil objective.
Image analysis was performed using Fiji (ImageJ) ([Schindelin et al., 2012]; [Schneider et al., 2012]). To quantify integrin clustering in FAs (based on vinculin staining) versus FCLs (clathrin staining), background was subtracted in both channels using a bilateral filter and the region of interest (ROI) was selected at the cell periphery. Colocalization of integrin clusters and FAs or FCLs was determined using the Image Calculator (command ‘multiply’) on both channels and calculating the area of overlapping clusters as a percentage of the total integrin cluster area per cell using the Analyze Particle function.

[2] = tested on: phosphorylated MLC in PA-JEB/β4 keratinocytes; test: Western blot: cell tension (phosphorylated myosin light chain); type: cell-based, human; settings: nocodazole
Description: Proteins were separated by electrophoresis using a Bolt Novex 4–12% gradient Bis-Tris gels (Invitrogen) or 15% SDS-PAGE gels (made in-house), transferred to Immobilon-P transfer membranes (Millipore Corp) and blocked for at least 30 min in 2% BSA in TBST buffer (10 mM Tris-HCl pH 7.5, 150 mM NaCl and 0.3% Tween-20). Primary antibody (diluted 1:1000 in 2% BSA in TBST buffer) incubation took place overnight at 4°C. After washing twice with TBST and twice with TBS, blots were incubated for 1 h hour at room temperature with horseradish peroxidase-conjugated goat anti-mouse-IgG or goat anti-rabbit-IgG (diluted 1:3000 in 2% BSA in TBST buffer). After subsequent washing steps, the bound antibodies were detected by enhanced chemiluminescence using SuperSignal™ West Dura Extended Duration Substrate (ThermoFisher) or Clarity™ Western ECL Substrate (Bio-Rad) as described by the manufacturer. Signal intensities were quantified using ImageJ.
Fig. S4. (A) Representative western blots of phosphorylated myosin light chain (MLC) and GAPDH in PA-JEB/β4 keratinocytes treated with DMSO versus Nocodazole. […]
μm. Quantifications of β5 or β5 mutants clustering in FAs are shown in (C-E). […] Total cells analyzed per condition: 90 (WT, DMSO), 111 (WT, Noco.) (C), 40 (S>E, DMSO), 80 (S>E, Noco.) (D), 65 (S>A, DMSO), 82 (S>A, Noco.) (E). […]

Compound: COC(=O)Nc1nc2ccc(C(=O)c3cccs3)cc2[nH]1 [nocodazole]
- localization of β5 in FCLs ([1]; nocodazole): inhibits the localization of β5 in FCLs
- localization of β5 within FAs and FCLs ([1]; nocodazole versus DMSO, three independent experiments): significant shift in the localization of β5 from FCLs to FAs
- localization of phospho-inhibitory β5 mutant ([1]; nocodazole, β5-deficient keratinocytes expressing β5-S759/762A): neither of their localizations were altered
- localization of phospho-mimetic β5 mutant ([1]; nocodazole, β5-deficient keratinocytes expressing β5-S759/762E): neither of their localizations were altered
- cell tension [2]: increased cell tension
